According to patent publication US20240197869A1, “HYPERACTIVATORS OF MAMMALIAN DENDRITIC CELLS” (Corner Therapeutics, Inc., priority 2021, published 2024):

Experiments:
[1] = tested on: human monocyte-derived dendritic cells (moDCs); test: DAMP screen: viability of human moDCs (CellTiter-Glo)
Experimental: Danger-Associated Molecular Pattern (DAMP) Screen. After 6 days of differentiation into moDC, cells were collected and counted. Cells were plated at 100,000 cells/well in R10 media in 96-well flat bottom tissue culture-treated plates. LPS, serotype O55:B5 (Enzo Life Sciences) was added to a final concentration of 1 μg/mL in each well. […] Cells were incubated at 37° C., 5% CO2 for two days. Cell cultures were then used for endpoint analyses.
Endpoint Analyses. After culturing moDCs with PAMPs and DAMPs for two days, supernatant and cell samples were collected for analysis.
(§2) Quantification of Cell Viability. Cell viability was assessed by quantifying the presence of ATP as an indicator of metabolically active cells using the CellTiter-Glo Luminescent Cell Viability Assay (Promega). Metabolic activity was assessed following manufacturer's instructions. The CellTiter-Glo reagent was mixed with the cell pellets and remaining supernatant, and transferred to a white, opaque 96-well plate. Luminescence was measured on all wavelengths on a Spectramax iD3 plate reader (Molecular Devices) using an integration time of 500 ms. Percent viability was calculated relative to the control condition of moDCs treated with LPS.

[2] = tested on: human monocyte-derived dendritic cells (moDCs); test: DAMP screen: IL-1β secretion by LPS-activated human moDCs (ELISA); assay type: cell-based
Experimental: Danger-Associated Molecular Pattern (DAMP) Screen.
(§1) Quantification of IL-1beta Secretion. IL-1beta secretion was assessed using the ELISA MAX Deluxe Set Human IL-1beta kit (Biolegend). ELISAs were performed according to manufacturer's instructions with the following modifications: i) total sample volume for incubation was reduced from […] the top standard was prepared at […], with two-fold dilutions to […]; and iii) sample incubation was completed overnight at 4 C on an orbital shaker. […] To determine IL-1beta concentration in supernatants, sample IL-1beta concentrations were interpolated using a standard curve via 4PL analysis on GraphPad Prism 9 (GraphPad Software). The interpolated results of samples were then adjusted for any dilutions made to the supernatant.

[3] = tested on: human monocyte-derived dendritic cells (moDCs); test: Lipid titration: IL-1β secretion by LPS-activated human moDCs; assay type: cell-based
Experimental: as §1

[4] = tested on: human monocyte-derived dendritic cells (moDCs); test: Lipid titration: viability of human moDCs (CellTiter-Glo); conditions: 10.3 μM lipid + LPS 1 μg/mL, 2 days; relative to LPS-treated moDCs; Table 1-5
Experimental: Lipid Titration. After 6 days of differentiation into moDC, cells were collected and counted. Cells were replated at 100,000 cells/well in R10 media in 96-well flat bottom tissue culture-treated plates. LPS, serotype 055:B5 (Enzo Life Sciences) was added to a final concentration of 1 μg/mL in each well. After the addition of LPS, lipids were prepared. […] After two days of culture, cell cultures were used for endpoint analyses.
Endpoint Analyses. After culturing moDCs with PAMPs and DAMPs for two days, supernatant and cell samples were collected for analysis. Cells in culture were pelleted by centrifugation at 400×g for 5 min.
as §2
Statistical Analyses. […] For each tested condition, cells from each donor were plated to be tested in triplicate.

[5] = 41.3 μM lipid + LPS 1 μg/mL, 2 days, relative to LPS-treated moDCs, Table 1-2
[6] = 82.5 μM lipid + LPS 1 μg/mL, 2 days, relative to LPS-treated moDCs, Table 1-1
[7] = 41.3 μM lipid + LPS 1 μg/mL, 2 days, Table 1-2
[8] = 82.5 μM lipid + LPS, selected lipids, Table 1-3 (repeats Table 1-1)
[9] = 10.3 μM lipid + LPS 1 μg/mL, 2 days, Table 1-5
[10] = 20.6 μM lipid + LPS, human moDCs, 4 donors, mean (SD in wrapped line below)

Row | Compound | Relative Viability (%) ± SD [1, 5] [%] | Relative Viability (%) ± SD [1, 6] [%] | IL-1β secretion [2, 7] [pg/mL] | further results
1 | CCCCCCCCCCCCCCCC(=O)O[C@H](CO)COP(=O)([O-])OCC[N+](C)(C)C [2-16:0 LYSO PC, 1-hydroxy-2-palmitoyl-sn-glycero-3-phosphocholine] | 87.2 | 43.9 | 93.0 | 
2 | CCCCCCCCCCCCCCCCCC(=O)O[C@H](CO)COP(=O)([O-])OCC[N+](C)(C)C [2-18:0 LYSO PC, 2-stearoyl-sn-glycero-3-phosphocholine] | 65.3 | 11.5 | 225.0 | 
3 | CCCCCCCC/C=C\CCCCCCCC(=O)O[C@H](CO)COP(=O)([O-])OCC[N+](C)(C)C [2-18:1 Δ9 LYSO PC, 1-hydroxy-2-oleoyl-sn-glycero-3-phosphocholine] | 100.6 | 97.7 | 45.0 | 
4 | CCCCCC(=O)OC[C@@H](O)COP(=O)([O-])OCC[N+](C)(C)C [06:0 LYSO PC] | 96.1 | 92.8 | 48.2 | 
5 | CCCCCCC(=O)OC[C@@H](O)COP(=O)([O-])OCC[N+](C)(C)C [07:0 LYSO PC] | 97.9 | 93.9 | 36.0 | 
6 | CCCCCCCC(=O)OC[C@@H](O)COP(=O)([O-])OCC[N+](C)(C)C [08:0 LYSO PC] | 96.7 | 95.3 | 32.2 | 
7 | CCCCCCCCC(=O)OC[C@@H](O)COP(=O)([O-])OCC[N+](C)(C)C [09:0 LYSO PC] | 98.2 | 95.4 | 31.3 | 
8 | CCCCCCCCCCC(=O)OC[C@@H](O)COP(=O)([O-])OCC[N+](C)(C)C [11:0 LYSO PC] | 94.9 | 92.8 | 39.3 | 
9 | CCCCCCCCCCCC(=O)OC[C@@H](O)COP(=O)([O-])OCC[N+](C)(C)C [12:0 LYSO PC] | 96.6 | 91.1 | 54.5 | Relative Viability (%) ± SD [1, 8]: 91.1%; IL-1β secretion [3, 9]: 43.1 pg/mL; IL-1β secretion [3, 10]: 44.2 pg/mL; Relative Viability (%) ± SD [4]: 97.3%; IL-1β secretion [2, 8]: 115.3 pg/mL
10 | CCCCCCCCCCCCC(=O)OC[C@@H](O)COP(=O)([O-])OCC[N+](C)(C)C [13:0 LYSO PC, 1-tridecanoyl-2-hydroxy-sn-glycero-3-phosphocholine] | 93.9 | 93.2 | 80.7 | 
11 | CCCCCCCCCCCCCCCC(=O)O[C@H](COC(=O)CCCCCCCCCCCCC)COP(=O)([O-])OCC[N+](C)(C)C [14:0-16:0 PC] | 97.1 | 90.8 | 32.7 | 
12 | CCCCCCCCCCCCCCCCCC(=O)O[C@H](COC(=O)CCCCCCCCCCCCC)COP(=O)([O-])OCC[N+](C)(C)C [14:0-18:0 PC] | 100.0 | 90.5 | 24.0 | 
13 | CCCCCCCCCCCCCCC(=O)OC[C@@H](O)COP(=O)([O-])OCC[N+](C)(C)C [15:0 LYSO PC, 1-pentadecanoyl-2-hydroxy-sn-glycero-3-phosphocholine] | 90.8 | 65.4 | 150.3 | 
14 | CCCCCCCCCCCCCCCC(=O)OC[C@@H](O)COP(=O)([O-])OCC[N+](C)(C)C [16:0 LYSO PC, 1-palmitoyl-2-hydroxy-sn-glycero-3-phosphocholine] | 87.2 | 44.7 | 97.4 | 
15 | CCCCCCCCCCCCCCCC(=O)OC[C@H](COP(=O)([O-])OCC[N+](C)(C)C)OC(=O)CCCCCCCCCCCCC [16:0-14:0 PC] | 101.0 | 87.4 | 42.2 | 
16 | CCCCCCCCCCCCCCCCCC(=O)O[C@H](COC(=O)CCCCCCCCCCCCCCC)COP(=O)([O-])OCC[N+](C)(C)C [16:0-18:0 PC] | 97.7 | 88.8 | 26.3 | 
17 | CCCCCCCC/C=C\CCCCCCCC(=O)O[C@H](COC(=O)CCCCCCCCCCCCCCC)COP(=O)([O-])OCC[N+](C)(C)C [16:0-18:1 PC (POPC)] | 96.5 | 92.9 | 28.2 | 
18 | CCCCCCCCCCCCCCCC(=O)OC[C@H](COP(=O)([O-])OCC[N+](C)(C)C)OC(=O)CCCCCCCCCCC(CCCCCC)OC(=O)CCCCCCCCCCCCCCC (stereo partly drawn) [16:0-(12-PAHSA) PC] | 98.3 | 96.9 | 37.0 | 
19 | CCCCCC/C=C\CCCCCCCCC(=O)OC[C@@H](O)COP(=O)([O-])OCC[N+](C)(C)C [17:1 Δ^10 LYSO PC, 1-(10Z-heptadecenoyl)-2-hydroxy-sn-glycero-3-phosphocholine] | 97.2 | 95.3 | 42.7 | 
20 | CCCCCCCCCCCCCCCCCC(=O)OC[C@H](COP(=O)([O-])OCC[N+](C)(C)C)OC(=O)CCCCCCCCCCCCC [18:0-14:0 PC] | 98.1 | 86.1 | 31.2 | 
21 | CCCCCCCCCCCCCCCCCC(=O)OC[C@H](COP(=O)([O-])OCC[N+](C)(C)C)OC(=O)CCCCCCCCCCCCCCC [18:0-16:0 PC] | 100.3 | 85.3 | 20.1 | 
22 | CCCCCCCC/C=C\CCCCCCCC(=O)OC[C@@H](O)COP(=O)([O-])OCC[N+](C)(C)C [18:1 Δ^9 LYSO PC] | 97.8 | 91.5 | 34.8 | 
23 | CCCCCCCCCCCCCCCCCCC(=O)OC[C@@H](O)COP(=O)([O-])OCC[N+](C)(C)C [19:0 LYSO PC, 1-nonadecanoyl-2-hydroxy-sn-glycero-3-phosphocholine] | 39.4 | 2.7 | 468.9 | Relative Viability (%) ± SD [1, 8]: 2.7%; IL-1β secretion [3, 9]: 43.0 pg/mL; IL-1β secretion [3, 10]: 55.6 pg/mL; lipid activity index, ranking in words ([3]; lipid 1.3-82.5 μM + LPS): followed by 19:0 Lyso PC; Activity Units (AU) ± SD (lipid activity index) ([3]; reciprocal of lowest concentration giving IL-1β two-fold over LPS x highest IL-1β signal, lipid 1.3-82.5 μM + LPS): 6.34 ± 3.39 AU; Relative Viability (%) ± SD [4]: 96.4%; IL-1β secretion [2, 8]: 209.3 pg/mL
24 | CCCCCCCCCCCCCCCCCCCC(=O)OC[C@@H](O)COP(=O)([O-])OCC[N+](C)(C)C [20:0 LYSO PC, 1-arachidoyl-2-hydroxy-sn-glycero-3-phosphocholine] | 75.2 | 6.0 | 168.7 | 
25 | CCCCCCCCCCCCCCCCCCCCCCCCCC(=O)OC[C@@H](O)COP(=O)([O-])OCC[N+](C)(C)C [26:0 LYSO PC] | 93.3 | 94.7 | 43.1 | 
